From article PMC7699592, “Interaction between the Lentil Lipid Transfer Protein Lc-LTP2 and Its Novel Signal Ligand PI(4,5)P2” (Membranes, 2020)

Columns and labels:
Type in all cases: binding
[1] = molecular target: T1, LTP from mugwort (mugwort LTP) (Artemisia vulgaris, UniProt C4MGG9); experiment: protein-lipid overlay on membrane lipid strips; settings: lipid immobilised, 100 pM per spot; PBS; anti-Lc-LTP2 antibody detection
T1 construct: gene Art v 3; recombinant, overexpressed in Escherichia coli, purified; four disulfide bonds
T1 sequence (C4MGG9 24-114): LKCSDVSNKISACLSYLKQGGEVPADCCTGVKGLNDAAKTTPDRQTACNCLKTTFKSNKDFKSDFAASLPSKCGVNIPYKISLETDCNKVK

[2] = molecular target: T2, LTP from strawberry (strawberry LTP) (Fragaria x ananassa, UniProt Q8VX12); experiment: protein-lipid overlay on membrane lipid strips; settings: lipid immobilised, […] per spot; PBS; anti-Lc-LTP2 antibody detection
T2 construct: gene lpt46; recombinant, overexpressed in Escherichia coli, purified; four disulfide bonds
T2 sequence (Q8VX12 27-117): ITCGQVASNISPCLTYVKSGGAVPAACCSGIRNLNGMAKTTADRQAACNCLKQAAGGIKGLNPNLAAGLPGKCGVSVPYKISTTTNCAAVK

[3] = molecular target: T3, LTP from ragweed (ragweed LTP) (Ambrosia artemisiifolia, UniProt O04004); experiment: protein-lipid overlay on membrane lipid strips; settings: lipid immobilised, 100 pM per spot; PBS; anti-Lc-LTP2 antibody detection
T3 construct: recombinant, overexpressed in Escherichia coli, purified; four disulfide bonds
T3 sequence (O04004 26-118): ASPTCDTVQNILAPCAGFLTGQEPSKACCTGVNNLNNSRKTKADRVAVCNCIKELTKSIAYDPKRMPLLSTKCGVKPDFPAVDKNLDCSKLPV

Lc-LTP2 [4] = molecular target: T4, Lc-LTP2 (Lens culinaris, UniProt A0AT29); experiment: TNS fluorescent probe displacement; settings: 4 uM LTP, 10 uM PI(4,5)P2, 3 uM TNS, pH 7.0, 25 °C
T4 construct: recombinant mature protein, overexpressed in Escherichia coli, purified; four disulfide bonds
T4 sequence (A0AT29 26-118): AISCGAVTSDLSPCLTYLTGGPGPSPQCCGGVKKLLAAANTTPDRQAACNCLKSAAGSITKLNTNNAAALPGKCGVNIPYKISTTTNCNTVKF

Lc-LTP2 [5] = molecular target: T5, Lc-LTP2 (Lens culinaris, UniProt A0AT29, Y105A); experiment: TNS fluorescent probe displacement; settings: 4 uM LTP, 10 uM PI(4,5)P2, 3 uM TNS, pH 7.0, 25 °C
T5 construct: recombinant mature protein, overexpressed in Escherichia coli, purified; four disulfide bonds
T5 sequence (A0AT29 26-118 Y105A): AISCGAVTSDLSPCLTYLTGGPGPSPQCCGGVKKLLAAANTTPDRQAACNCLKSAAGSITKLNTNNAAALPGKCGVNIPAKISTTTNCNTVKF

[6] = molecular target: T3, LTP from ragweed (ragweed LTP); experiment: TNS fluorescent probe displacement; settings: 4 uM LTP, 10 uM PI(4,5)P2, 3 uM TNS, pH 7.0, 25 °C
[7] = molecular target: T1, LTP from mugwort (mugwort LTP); experiment: TNS fluorescent probe displacement; settings: 4 uM LTP, 10 uM PI(4,5)P2, 3 uM TNS, pH 7.0, 25 °C
Lc-LTP2 [8] = molecular target: T6, Lc-LTP2 (Lens culinaris, UniProt A0AT29, R70A/Y105A); experiment: TNS fluorescent probe displacement; settings: 4 uM LTP, 10 uM PI(4,5)P2, 3 uM TNS, pH 7.0, 25 °C
T6 construct: recombinant mature protein, overexpressed in Escherichia coli, purified; four disulfide bonds
T6 sequence (A0AT29 26-118 R70A/Y105A): as the sequence (A0AT29 26-118 Y105A) above, with R45A counted along it

[9] = molecular target: T7, LTP from strawberry (strawberry LTP) (Fragaria x ananassa, UniProt Q8VX12); experiment: TNS fluorescent probe displacement; settings: 4 uM LTP, 10 uM PI(4,5)P2, 3 uM TNS, pH 7.0, 25 °C
T7 construct: recombinant, overexpressed in Escherichia coli, purified; four disulfide bonds

Row | Molecule | protein-lipid overlay on membrane lipid strips [1] | protein-lipid overlay on membrane lipid strips [2] | protein-lipid overlay on membrane lipid strips [3] | % reduction of LTP-TNS fluorescence (Lc-LTP2 [4]) | % reduction of LTP-TNS fluorescence (Lc-LTP2 [5]) | % reduction of LTP-TNS fluorescence [6] | % reduction of LTP-TNS fluorescence [7] | % reduction of LTP-TNS fluorescence (Lc-LTP2 [8]) | % reduction of LTP-TNS fluorescence [9]
1 | CCCCCCCCCCCCCCCC(=O)OC[C@H](COP(=O)(O)O[C@@H]1[C@H](O)[C@H](O)[C@@H](OP(=O)(O)O)[C@H](OP(=O)(O)O)[C@H]1O)OC(=O)CCCCCCCCCCCCCCC [PI(4,5)P2 diC16] | Protein-lipid overlay assays with other LTPs from the abovementioned plants led to the same results | Protein-lipid overlay assays with other LTPs from the abovementioned plants led to the same results | Protein-lipid overlay assays with other LTPs from the abovementioned plants led to the same results | – | – | – | – | – | –
2 | PI(4,5)P2 | – | – | – | 21% | 8% | 9% | 11% | 16% | 14%
